The target in one test is GLP-1R (Homo sapiens, UniProt P43220). Put plainly: HitHunter cAMP assay (GLP-1R). The test is classed as cell-based. To be noted: for Emax: read-out: (Emax) GLP-1R; for EC50: read-out: EC50 GLP-1R/nM. A digest of the protocol:
(§1)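 cAMP, luminescence read: agonist 22-pt 2× dilution in DMSO, duplicate, 30 min RT on 10,000 cells/well in 1×HBSS/10 mM HEPES/625 μM IBMX/0.2% BSA; anti-cAMP reagent 1 h RT dark, then O/N RT dark before read.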

The target of a further test is T1, GIP-R (Homo sapiens, UniProt P48546).
T1 sequence (P48546 22-466): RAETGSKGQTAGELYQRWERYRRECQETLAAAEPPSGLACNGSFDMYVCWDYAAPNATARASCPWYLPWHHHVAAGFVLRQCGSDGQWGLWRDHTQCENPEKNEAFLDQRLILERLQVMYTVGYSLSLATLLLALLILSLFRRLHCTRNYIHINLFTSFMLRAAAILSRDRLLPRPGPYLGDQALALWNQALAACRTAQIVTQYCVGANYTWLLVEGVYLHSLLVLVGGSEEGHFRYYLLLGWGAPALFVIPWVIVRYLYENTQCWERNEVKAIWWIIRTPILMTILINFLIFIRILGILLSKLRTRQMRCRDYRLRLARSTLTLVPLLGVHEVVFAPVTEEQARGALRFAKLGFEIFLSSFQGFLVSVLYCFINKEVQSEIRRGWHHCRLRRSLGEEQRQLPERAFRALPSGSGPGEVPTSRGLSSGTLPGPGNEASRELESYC
Put plainly: HitHunter cAMP assay (GIP-R). The test is classed as cell-based. The following applies: for Emax: read-out: (Emax) GIP-R; for EC50: read-out: EC50 GIP-R/nM; for Emax at 1 µM: read-out: (Emax) GIP-R at 1 μM, Table 3. An outline of the steps: as §1
A general note: cAMP levels reflect the balance of adenylyl cyclase and phosphodiesterase activity.

Where two headings read alike, the source gives them in different places.

Chain of GLP-1R (P43220 24-463): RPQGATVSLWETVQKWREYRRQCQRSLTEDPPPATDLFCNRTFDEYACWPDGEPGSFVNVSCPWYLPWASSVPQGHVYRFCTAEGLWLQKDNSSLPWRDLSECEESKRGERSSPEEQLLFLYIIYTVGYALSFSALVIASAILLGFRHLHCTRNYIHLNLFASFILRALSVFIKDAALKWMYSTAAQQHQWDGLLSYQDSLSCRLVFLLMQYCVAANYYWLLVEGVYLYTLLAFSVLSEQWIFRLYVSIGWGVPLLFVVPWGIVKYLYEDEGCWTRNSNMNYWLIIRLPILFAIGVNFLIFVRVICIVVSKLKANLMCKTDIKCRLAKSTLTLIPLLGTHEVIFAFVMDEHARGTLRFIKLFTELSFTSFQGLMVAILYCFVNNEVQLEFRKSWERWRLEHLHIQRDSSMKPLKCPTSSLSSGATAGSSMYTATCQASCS

For orientation: Emax means the size of the effect at its maximum, as opposed to the concentration needed. Turning to `CC[C@H](C)[C@H](NC(=O)[C@H](CO)NC(=O)[C@H](Cc1ccc(O)cc1)NC(=O)[C@H](CC(=O)O)NC(=O)[C@H](CO)NC(=O)[C@@H](NC(=O)[C@H](Cc1ccccc1)NC(=O)[C@@H](NC(=O)CNC(=O)[C@H](CCC(=O)O)NC(=O)C(C)(C)C(=O)O)[C@@H](C)O)[C@@H](C)O)C(=O)N[C@@H](Cc1ccc(O)cc1)C(=O)N[C@@H](CC(C)C)C(=O)N[C@@H](CC(=O)O)C(=O)N[C@@H](CCCCN)C(=O)N[C@@H](CCC(N)=O)C(=O)N[C@@H](C)C(=O)N[C@@H](C)C(=O)NC(C)(C)C(=O)N[C@@H](CCC(=O)O)C(=O)N[C@@H](Cc1ccccc1)C(=O)N[C@H](C(=O)N[C@@H](CC(N)=O)C(=O)N[C@@H](Cc1c[nH]c2ccccc12)C(=O)N[C@@H](CC(C)C)C(=O)N[C@@H](CC(C)C)C(=O)N[C@@H](C)C(=O)NCC(=O)NCC(=O)N1CCC[C@H]1C(=O)N[C@@H](CO)C(=O)N[C@@H](CO)C(=O)NCC(=O)N[C@@H](C)C(=O)N1CCC[C@H]1C(=O)N1CCC[C@H]1C(=O)N1CCC[C@H]1C(=O)N[C@@H](CO)C(=O)N[C@@H](CCCCN)C(N)=O)C(C)C` [Compound 131], the Emax is 95% on GLP-1R (Table 3, cAMP); 95% at GLP-1R (Table 3A, cAMP); 3.2% on GIP-R (Table 3, cAMP). In addition, the EC50 is 1 to 10 nM at GLP-1R (Table 3, cAMP); 1 to 10 nM at GLP-1R (Table 3A, cAMP); over 1000 nM on GIP-R (Table 3, cAMP); over 1000 nM at GIP-R (Table 3A, cAMP).

Consider `CC[C@H](C)[C@H](NC(=O)[C@H](CO)NC(=O)[C@H](Cc1ccc(O)cc1)NC(=O)[C@H](CC(=O)O)NC(=O)[C@H](CO)NC(=O)[C@@H](NC(=O)[C@H](Cc1ccccc1)NC(=O)[C@@H](NC(=O)CNC(=O)[C@H](CCC(=O)O)NC(=O)CS(=O)(=O)CC(=O)NCCN1C(=O)CSC1=O)[C@@H](C)O)[C@@H](C)O)C(=O)N[C@@H](Cc1ccc(O)cc1)C(=O)N[C@@H](CC(C)C)C(=O)N[C@@H](CC(=O)O)C(=O)N[C@@H](CCCCN)C(=O)N[C@@H](CCC(N)=O)C(=O)N[C@@H](C)C(=O)N[C@@H](C)C(=O)NC(C)(C)C(=O)N[C@@H](CCC(=O)O)C(=O)N[C@@H](Cc1ccccc1)C(=O)N[C@H](C(=O)N[C@@H](CC(N)=O)C(=O)N[C@@H](Cc1c[nH]c2ccccc12)C(=O)N[C@@H](CC(C)C)C(=O)N[C@@H](CC(C)C)C(=O)N[C@@H](C)C(=O)NCC(=O)NCC(=O)N1CCC[C@H]1C(=O)N[C@@H](CO)C(=O)N[C@@H](CO)C(=O)NCC(=O)N[C@@H](C)C(=O)N1CCC[C@H]1C(=O)N1CCC[C@H]1C(=O)N1CCC[C@H]1C(=O)N[C@@H](CO)C(=O)N[C@@H](CCCCN)C(N)=O)C(C)C` [Compound 168], for which the Emax on GLP-1R (Table 3, cAMP) is 92%; at GLP-1R (Table 3A, cAMP), 92%. Besides, the EC50 on GLP-1R (Table 3, cAMP) was 1 to 10 nM; on GLP-1R (Table 3A, cAMP), 1 to 10 nM; at GIP-R (Table 3, cAMP), over 1000 nM; at GIP-R (Table 3A, cAMP), over 1000 nM. Also, the Emax at 1 µM on GIP-R (cAMP) was in the range of 6 to 14%.

Turning to `CCCCCCCCCCCCCCCC(=O)N[C@@H](CCC(=O)NCCCC[C@H](NC(=O)[C@H](CO)NC(=O)[C@@H]1CCCN1C(=O)[C@@H]1CCCN1C(=O)[C@@H]1CCCN1C(=O)[C@H](C)NC(=O)CNC(=O)[C@H](CO)NC(=O)[C@H](CO)NC(=O)[C@@H]1CCCN1C(=O)CNC(=O)CNC(=O)[C@H](C)NC(=O)[C@H](CC(C)C)NC(=O)[C@H](CC(C)C)NC(=O)[C@H](Cc1c[nH]c2ccccc12)NC(=O)[C@H](CC(N)=O)NC(=O)[C@@H](NC(=O)[C@H](Cc1ccccc1)NC(=O)[C@H](CCC(=O)O)NC(=O)C(C)(C)NC(=O)[C@H](C)NC(=O)[C@H](C)NC(=O)[C@H](CCC(N)=O)NC(=O)[C@H](CCCCN)NC(=O)[C@H](CC(=O)O)NC(=O)[C@H](CC(C)C)NC(=O)[C@H](Cc1ccc(O)cc1)NC(=O)[C@@H](NC(=O)[C@H](CO)NC(=O)[C@H](Cc1ccc(O)cc1)NC(=O)[C@H](CC(=O)O)NC(=O)[C@H](CO)NC(=O)[C@@H](NC(=O)[C@H](Cc1ccccc1)NC(=O)[C@@H](NC(=O)CNC(=O)[C@H](CCC(=O)O)NC(=O)CSCC(=O)NCCN1C[C@@H](O)CC1=O)[C@@H](C)O)[C@@H](C)O)[C@@H](C)CC)C(C)C)C(N)=O)C(=O)O` [Compound 45], the maximal effect (Emax) at GLP-1R (Table 3, cAMP) turned out to be 100%; at GLP-1R (Table 3A, cAMP), 100%; on GIP-R (Table 3, cAMP) it was 42%; at GIP-R (Table 3A, cAMP) it was 42%. Besides, the EC50 on GLP-1R (Table 3, cAMP) lay in the range of 0.1 to 1 nM; on GLP-1R (Table 3A, cAMP) it was 0.1 to 1 nM; on GIP-R (Table 3, cAMP) it was 1 to 10 nM; at GIP-R (Table 3A, cAMP), 1 to 10 nM.

Take `CCCCCCCCCCCCCCCC(=O)N[C@@H](CCC(=O)NCCCC[C@H](NC(=O)[C@H](CO)NC(=O)[C@@H]1CCCN1C(=O)[C@@H]1CCCN1C(=O)[C@@H]1CCCN1C(=O)[C@H](C)NC(=O)CNC(=O)[C@H](CO)NC(=O)[C@H](CO)NC(=O)[C@@H]1CCCN1C(=O)CNC(=O)CNC(=O)[C@H](C)NC(=O)[C@H](CC(C)C)NC(=O)[C@H](CC(C)C)NC(=O)[C@H](Cc1c[nH]c2ccccc12)NC(=O)[C@H](CC(N)=O)NC(=O)[C@@H](NC(=O)[C@H](Cc1ccccc1)NC(=O)[C@H](CCC(=O)O)NC(=O)C(C)(C)NC(=O)[C@H](C)NC(=O)[C@H](C)NC(=O)[C@H](CCC(N)=O)NC(=O)[C@H](CCCCN)NC(=O)[C@H](CC(=O)O)NC(=O)[C@H](CC(C)C)NC(=O)[C@H](Cc1ccc(O)cc1)NC(=O)[C@@H](NC(=O)[C@H](CO)NC(=O)[C@H](Cc1ccc(O)cc1)NC(=O)[C@H](CC(=O)O)NC(=O)[C@H](CO)NC(=O)[C@@H](NC(=O)[C@H](Cc1ccccc1)NC(=O)[C@@H](NC(=O)CNC(=O)[C@H](CCC(=O)O)NC(=O)CSCC(=O)NCCC1CCCC1)[C@@H](C)O)[C@@H](C)O)[C@@H](C)CC)C(C)C)C(N)=O)C(=O)O` [Compound 57]: on GLP-1R (Table 3, cAMP), the Emax came to 109% and the EC50 was 0.1 to 1 nM. On GLP-1R (Table 3A, cAMP), the Emax turned out to be 109% and the EC50 was 0.1 to 1 nM. Further, the Emax at 1 µM on GIP-R (cAMP) came out at 7%.

With `CC[C@H](C)[C@H](NC(=O)[C@H](CO)NC(=O)[C@H](Cc1ccc(O)cc1)NC(=O)[C@H](CC(=O)O)NC(=O)[C@H](CO)NC(=O)[C@@H](NC(=O)[C@H](Cc1ccccc1)NC(=O)[C@@H](NC(=O)CNC(=O)[C@H](CCC(=O)O)NC(=O)CSCC(=O)NCCn1ccc(C(F)(F)F)cc1=O)[C@@H](C)O)[C@@H](C)O)C(=O)N[C@@H](Cc1ccc(O)cc1)C(=O)N[C@@H](CC(C)C)C(=O)N[C@@H](CC(=O)O)C(=O)N[C@@H](CCCCN)C(=O)N[C@@H](CCC(N)=O)C(=O)N[C@@H](C)C(=O)N[C@@H](C)C(=O)NC(C)(C)C(=O)N[C@@H](CCC(=O)O)C(=O)N[C@@H](Cc1ccccc1)C(=O)N[C@H](C(=O)N[C@@H](CC(N)=O)C(=O)N[C@@H](Cc1c[nH]c2ccccc12)C(=O)N[C@@H](CC(C)C)C(=O)N[C@@H](CC(C)C)C(=O)N[C@@H](C)C(=O)NCC(=O)NCC(=O)N1CCC[C@H]1C(=O)N[C@@H](CO)C(=O)N[C@@H](CO)C(=O)NCC(=O)N[C@@H](C)C(=O)N1CCC[C@H]1C(=O)N1CCC[C@H]1C(=O)N1CCC[C@H]1C(=O)N[C@@H](CO)C(=O)N[C@@H](CCCCN)C(N)=O)C(C)C` [Compound 121], the maximum response (Emax) on GLP-1R came to 90%; on GIP-R, 27%.

Regarding `CCCCCCCCCCCCCCCC(=O)N[C@@H](CCC(=O)NCCCC[C@H](NC(=O)[C@H](CO)NC(=O)[C@@H]1CCCN1C(=O)[C@@H]1CCCN1C(=O)[C@@H]1CCCN1C(=O)[C@H](C)NC(=O)CNC(=O)[C@H](CO)NC(=O)[C@H](CO)NC(=O)[C@@H]1CCCN1C(=O)CNC(=O)CNC(=O)[C@H](C)NC(=O)[C@H](CC(C)C)NC(=O)[C@H](CC(C)C)NC(=O)[C@H](Cc1c[nH]c2ccccc12)NC(=O)[C@H](CC(N)=O)NC(=O)[C@@H](NC(=O)[C@H](Cc1ccccc1)NC(=O)[C@H](CCC(=O)O)NC(=O)C(C)(C)NC(=O)[C@H](C)NC(=O)[C@H](C)NC(=O)[C@H](CCC(N)=O)NC(=O)[C@H](CCCCN)NC(=O)[C@H](CC(=O)O)NC(=O)[C@H](CC(C)C)NC(=O)[C@H](Cc1ccc(O)cc1)NC(=O)[C@@H](NC(=O)[C@H](CO)NC(=O)[C@H](Cc1ccc(O)cc1)NC(=O)[C@H](CC(=O)O)NC(=O)[C@H](CO)NC(=O)[C@@H](NC(=O)[C@H](Cc1ccccc1)NC(=O)[C@@H](NC(=O)CNC(=O)[C@H](CCC(=O)O)NC(=O)CCNC(=O)CCN1CCCCCC1=O)[C@@H](C)O)[C@@H](C)O)[C@@H](C)CC)C(C)C)C(N)=O)C(=O)O` [Compound 267], the Emax on GLP-1R (Table 3A, cAMP) was found to be 100%. At GIP-R (Table 3A, cAMP), the maximum response (Emax) was 40% and the EC50 fell in the range of 10 to 100 nM.

For the origin of these results see patent publication US20260176320A1, “MODULATORS OF G-PROTEIN COUPLED RECEPTORS” (priority 2018, published 2026).
